Where “and” joins values, the source holds several entries; their conditions need not be identical. Identical values can stand only once.
Assay: solvent given as SMILES

SMILES: CC1=N/C(=C\c2cc(N(C)C)ccc2C#N)C(=O)N1C
- absorption maximum (in C1CCOC1): 363 nm
- absorption maximum (in CC#N): 361 nm
- absorption maximum (in CCCCCC): 359 nm

SMILES: CC(C)(C)c1ccc2ccc3cc(-c4ccc5c(-c6ccc7c(ccc8ccc(C(C)(C)C)cc87)c6)cc6c7cc(-c8ccc9c(ccc%10ccc(C(C)(C)C)cc%109)c8)ccc7c(-c7ccc8c(ccc9ccc(C(C)(C)C)cc98)c7)cc6c5c4)ccc3c2c1
- absorption maximum (in ClCCl): 303 nm

SMILES: O=c1c2cc(F)c(O)cc2sc2cc(O)c(F)cc12
- absorption maximum (in CCO): 377 nm

SMILES: COc1ccc(N(c2ccccc2)c2ccccc2)cc1
- absorption maximum (in Cc1ccccc1): 299 nm

SMILES: O=C(/C=C(\O)c1ccc(N2c3ccccc3Oc3ccccc32)cc1)c1ccc(N2c3ccccc3Oc3ccccc32)cc1
- absorption maximum (in Cc1ccccc1): 441 nm

SMILES: CCC1=C(C)C2=C(/C=C/c3ccc(OC)cc3)c3c(C)c(CC)c(C)n3[B-](F)(F)[N+]2=C1C
- absorption maximum (in ClCCl): 529 nm

SMILES: [NH3+]c1cc([NH3+])cc(-c2nc3ccccc3s2)c1
- absorption maximum (in O): 315 nm

SMILES: CC(=O)c1c(N[C@H](C(=O)O)C(C)C)c2ccc(N(C)C)cc2oc1=O
- absorption maximum (in ClCCl): 371 nm

SMILES: c1ccc(Nc2nc(Nc3ccccc3)nc(Nc3ccc4c5cccc6cccc(c7cccc3c74)c65)n2)cc1
- absorption maximum (in C1COCCO1): 444 nm
- absorption maximum (in CC#N): 444 nm
- absorption maximum (in CCCCOCCCC): 444 nm
- absorption maximum (in CCOC(C)=O): 443 nm

SMILES: C[n+]1ccc(/C=C/c2ccc(N(c3ccccc3)c3ccc(/C=C/c4cc[n+](C)cc4)cc3)cc2)cc1
- absorption maximum (in ClCCl): 402 nm
- absorption maximum (in O): 509 nm
- absorption maximum (in OCC(O)CO): 496 nm

SMILES: C(=C\c1nc(/C=C/c2ccccc2)nc(/C=C/c2ccccc2)n1)/c1ccccc1
- absorption maximum (in ClCCl): 327 nm

SMILES: CCOC(=O)c1ccc(/C=C/C2=[N+]3C(=C(c4ccccc4)c4ccc(/C=C/c5ccc(C(=O)OCC)o5)n4[B-]3(F)F)C=C2)o1
- absorption maximum (in ClC(Cl)Cl): 671 nm

SMILES: F[B-]1(F)n2c(-c3cccs3)cc(-c3cccs3)c2N=C2C(c3cccs3)=CC(c3cccs3)=[N+]21
- absorption maximum (in C1CCOC1): 740 nm
- absorption maximum (in CC#N): 733 nm
- absorption maximum (in CS(C)=O): 752 nm
- absorption maximum (in Cc1ccccc1): 743 nm
- absorption maximum (in ClCCl): 740 nm and 742 nm

SMILES: CCCn1c2cccc3oc4cccc5c4[c+](c32)c2c1cccc2n5CCC
- absorption maximum (in CC#N): 557 nm

SMILES: CC1(C)CC(NCc2ccc3ccc4cccc5ccc2c3c45)CC(C)(C)N1
- absorption maximum (in C1CCCCC1): 374 nm
- absorption maximum (in CC#N): 374 nm
- absorption maximum (in CO): 374 nm
- absorption maximum (in ClC(Cl)Cl): 389 nm

SMILES: CCc1cccc(CC)c1-c1c2ccccc2c(-c2c(CC)cccc2CC)c2cc3ccccc3cc12
- absorption maximum (in ClCCl): 495 nm

SMILES: CCN1c2ccccc2Sc2cc(/C=C(\C#N)c3ccccc3)ccc21
- absorption maximum (in C1CCOC1): 411 nm
- absorption maximum (in CC#N): 409 nm
- absorption maximum (in CC(C)=O): 410 nm
- absorption maximum (in CN(C)C=O): 414 nm
- absorption maximum (in CS(C)=O): 418 nm
- absorption maximum (in Cc1ccccc1): 412 nm
- absorption maximum (in ClCCl): 413 nm

SMILES: CC1(C)c2ccccc2N(c2ccc(-c3nnc(-c4ccc(N5c6ccccc6C(C)(C)c6ccccc65)cc4)o3)cc2)c2ccccc21
- absorption maximum (in Cc1ccccc1): 360 nm

SMILES: CC(C)(C)c1ccc2oc3nc4oc5ccc(N6c7ccccc7Sc7ccccc76)cc5c4cc3c2c1
- absorption maximum (in ClC(Cl)Cl): 348 nm

SMILES: O=c1cc(-c2nc3ccccn3c2NC2CCCCC2)occ1OCc1ccccc1
- absorption maximum (in ClCCl): 357 nm

SMILES: O=C(N/N=C/c1ccccc1O)c1ccccc1O
- absorption maximum (in C1CCOC1): 334 nm
- absorption maximum (in CC#N): 335 nm
- absorption maximum (in CC(C)=O): 331 nm
- absorption maximum (in CCO): 400 nm
- absorption maximum (in CN(C)C=O): 412 nm
- absorption maximum (in CS(C)=O): 385 nm
- absorption maximum (in ClCCl): 335 nm

SMILES: O[Si](c1c2ccccc2cc2ccccc12)(c1c2ccccc2cc2ccccc12)c1c2ccccc2cc2ccccc12
- absorption maximum (in ClC(Cl)Cl): 402 nm

SMILES: COc1cccc2c1-c1ccccc1C2=O
- absorption maximum (in C1CCCCC1): 420 nm
- absorption maximum (in CC#N): 432 nm
- absorption maximum (in CCO): 432 nm

SMILES: CCn1c(-c2ccc(-c3ccc4ccc5cccc6ccc3c4c56)cc2)c(-c2ccc3ccccc3c2)c(-c2ccc3ccccc3c2)c1-c1ccc(-c2ccc3ccc4cccc5ccc2c3c45)cc1
- absorption maximum (in CCOC(C)=O): 344 nm

SMILES: O=C1OC(=O)c2ccc(N(c3ccccc3)c3c4ccccc4cc4ccccc34)c3cccc1c23
- absorption maximum (in C1CCOC1): 450 nm
- absorption maximum (in CCCCCC): 440 nm
- absorption maximum (in ClCCl): 462 nm
- absorption maximum (in c1ccccc1): 450 nm

SMILES: CC1=C2C3=C(CCc4ccccc43)C(C)=[N+]2[B-](F)(F)n2c(C)c3c(c21)-c1ccccc1CC3
- absorption maximum (in CC#N): 559 nm

SMILES: COc1ccc(-c2nc(-c3ccccc3)c(-c3ccccc3)[nH]2)cc1
- absorption maximum (in CO): 305 nm

SMILES: F[B-]1(F)OC(c2ccc3c(c2)Cc2ccccc2-3)=CC(c2ccccc2)=[O+]1
- absorption maximum (in CC#N): 412 nm

SMILES: C(=C\c1ncnc2ccccc12)/c1ccc(-c2ccc(N(c3ccccc3)c3ccccc3)cc2)cc1
- absorption maximum (in ClCCl): 402 nm

SMILES: CC(C)(C)c1ccc(-c2sc3c(-c4ccc(C(C)(C)C)cc4)c4n(c3c2-c2ccc(C(C)(C)C)cc2)[B-](F)(F)[N+]2=Cc3c(-c5ccc(C(C)(C)C)cc5)c5sc(-c6ccc(C(C)(C)C)cc6)c(-c6ccc(C(C)(C)C)cc6)c5n3[B-](F)(F)[N+]2=C4)cc1
- absorption maximum (in CC#N): 574 nm
- absorption maximum (in CCCCCC): 591 nm
- absorption maximum (in CN(C)C=O): 584 nm
- absorption maximum (in Cc1ccccc1): 596 nm
- absorption maximum (in ClCCl): 591 nm

SMILES: c1ccc2c[n+]3ccccc3cc2c1
- absorption maximum (in O): 396 nm

SMILES: C(=C\c1cc(/C=C/c2ccc(N(c3ccccc3)c3ccccc3)cc2)nc(/C=C/c2ccc(N(c3ccccc3)c3ccccc3)cc2)n1)/c1ccc(N(c2ccccc2)c2ccccc2)cc1
- absorption maximum (in ClCCl): 415 nm

SMILES: c1ccc(-c2nn(-c3ccccc3)c3nc4ccc(-n5c6ccccc6c6ccccc65)cc4cc23)cc1
- absorption maximum (in C1CCCCC1): 419.11 nm
- absorption maximum (in C1CCOC1): 414.94 nm
- absorption maximum (in CC#N): 411.02 nm
- absorption maximum (in CC(C)=O): 412.03 nm
- absorption maximum (in CCCCCl): 415.97 nm
- absorption maximum (in CCCCOCCCC): 418.06 nm
- absorption maximum (in CN(C)C=O): 414.94 nm

SMILES: O=C1c2cc(F)ccc2-c2cnccc21
- absorption maximum (in CC#N): 408.61 nm
- absorption maximum (in CCCCCC): 408.61 nm

SMILES: CC1=CC(C)=[N+]2C1=C(c1ccc(I)cc1)c1c(C)cc(C)n1[B-]2(OCc1ccccc1)OCc1ccccc1
- absorption maximum (in ClC(Cl)Cl): 506 nm

SMILES: C(/C=C/c1ccc(N(c2ccccc2)c2ccccc2)cc1)=C\c1ccncc1
- absorption maximum (in C1COCCO1): 395 nm
- absorption maximum (in CC#N): 396 nm
- absorption maximum (in CCCCCCC): 393 nm
- absorption maximum (in CO): 399 nm

SMILES: CN(C)c1ccc(/C=C/c2nc3c4ccccc4c4ccccc4c3[nH]2)cc1
- absorption maximum (in C1CCOC1): 390 nm
- absorption maximum (in C1COCCO1): 389 nm
- absorption maximum (in CC1CCCCC1): 386 nm
- absorption maximum (in CC#N): 389 nm
- absorption maximum (in CCOC(C)=O): 387 nm
- absorption maximum (in CCOCC): 386 nm
- absorption maximum (in CN(C)C=O): 392 nm
- absorption maximum (in COC(C)=O): 389 nm
- absorption maximum (in CS(C)=O): 396 nm
- absorption maximum (in Cc1ccccc1): 393 nm
- absorption maximum (in ClC(Cl)Cl): 393 nm

SMILES: CCN(CC)c1ccc2c(c1)oc(=O)c1c(-c3ccccc3C(=O)O)c3ccc(=[N+](CC)CC)cc-3oc12
- absorption maximum (in CCO): 591 nm
- absorption maximum (in ClC(Cl)Cl): 602 nm
- absorption maximum (in O): 594 nm

SMILES: CN(C)c1ccc2c(c1)[Si](C)(C)C1=CC(=[N+](C)C)C=CC1=C2C#Cc1ccccc1
- absorption maximum (in CO): 712 nm
- absorption maximum (in O): 712 nm

SMILES: CC(C)(C)c1ccc(C#Cc2cc3ccc4cc(C#Cc5ccc(C(C)(C)C)cc5)cc5ccc(c2)c3c45)cc1
- absorption maximum (in ClCCl): 410 nm

SMILES: Cc1cccc2nc3[nH]c(=O)[nH]c(=O)c3nc12
- absorption maximum (in CC#N): 380 nm

SMILES: CCCCCCN1C(=O)c2cccc3c(-c4sc(-c5ccc6c7c(cccc57)C(=O)N(CCCCCC)C6=O)c5c4OCCO5)ccc(c23)C1=O
- absorption maximum (in ClC(Cl)Cl): 416 nm
